These results are taken from PubChem BioAssay (NCI).

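Grown in 96-well plates, cells were treated for 48 hours with each compound at five concentrations. Insufficient inhibition: endpoint recorded as highest concentration tested. GI50 = concentration required for 50% inhibition of growth. TGI denotes the concentration required for complete inhibition of growth.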

Test systems include HS 578T breast; MALME-3M melanoma; NCI-H226 lung; NCI-H23 lung; NCI-H460 lung; OVCAR-3 ovarian; OVCAR-5 ovarian; SF-539 CNS; SK-MEL-5 melanoma; SW-620 colon.
Common to all, as to assay: NCI tumour cell line growth inhibition, 48 h

Regarding `CC(C)C[C@H](NC(=O)[C@H]1O[C@@H]1C(=O)O)C(=O)NCCc1ccc(O)cc1`, the GI50 in the test with HS 578T breast, in the test on MALME-3M melanoma, in the test on NCI-H226 lung, with NCI-H23 lung, in the test on NCI-H460 lung and in the test on OVCAR-3 ovarian was greater than 100 µM each time. Further, the GI50 in the test with OVCAR-5 ovarian, in the test with SF-539 CNS, in the test on SK-MEL-5 melanoma and with SW-620 colon was greater than 100 µM each time. In addition, the TGI with HS 578T breast, in the test with MALME-3M melanoma, in the test with NCI-H226 lung, in the test on NCI-H23 lung, with NCI-H460 lung and in the test with OVCAR-3 ovarian was greater than 100 µM throughout. In addition, the TGI with OVCAR-5 ovarian, with SF-539 CNS, in the test with SK-MEL-5 melanoma and in the test with SW-620 colon was greater than 100 µM throughout.
Turning to `O=C1/C(=C/c2ccc3c(c2)OCO3)CCC1CN1CCOCC1` (configuration not stated), the TGI with HS 578T breast is 14.8 µM; in the test on MALME-3M melanoma, 22.6 µM; in the test on NCI-H226 lung it was 33.8 µM; in the test with NCI-H23 lung, 25.1 µM; in the test on NCI-H460 lung, 33.4 µM; with OVCAR-3 ovarian, 20.5 µM. Further, the TGI in the test with OVCAR-5 ovarian turned out to be 31.8 µM; in the test on SF-539 CNS it was 28.1 µM; in the test on SK-MEL-5 melanoma, 20.4 µM; in the test on SW-620 colon, 4.83 µM.
`CC(C)(O)C1CCC(Nc2ccc3ncc(-c4cccc(C(F)(F)F)c4)n3n2)CC1` (configuration not stated): the GI50 in the test on HS 578T breast was 1.59 µM; in the test on MALME-3M melanoma, 2.25 µM; with NCI-H226 lung it was 2.19 µM; in the test with NCI-H23 lung, 3.16 µM; in the test on NCI-H460 lung, 2.7 µM; in the test with OVCAR-3 ovarian it was 2.99 µM. Moreover, the values for the GI50 in the test with OVCAR-5 ovarian, in the test on SF-539 CNS and in the test with SW-620 colon were 2.92 µM, 1.77 µM and 2.91 µM, respectively. The TGI was determined as 4.67 µM in the test with HS 578T breast; 13.6 µM in the test with MALME-3M melanoma; 27 µM in the test with NCI-H226 lung; 30.2 µM in the test on NCI-H23 lung; 12.1 µM with NCI-H460 lung; 13.3 µM in the test with OVCAR-3 ovarian. In addition, the TGI with OVCAR-5 ovarian is greater than 100 µM; in the test with SF-539 CNS, 11.2 µM; with SW-620 colon, 15 µM.
In the case of `C=CCNCCCN1C(=O)c2ccc3c4c(ccc(c24)C1=O)C(=O)N(CCCNCC=C)C3=O`, the GI50 in the test on HS 578T breast is 1.3 µM; with MALME-3M melanoma, 0.258 µM; with NCI-H226 lung it was 0.292 µM; with NCI-H23 lung, 0.392 µM; with NCI-H460 lung, 0.195 µM; with OVCAR-3 ovarian, 0.298 µM. The GI50 is 0.596 µM in the test with OVCAR-5 ovarian, 0.584 µM in the test on SF-539 CNS, 0.182 µM with SK-MEL-5 melanoma and 0.265 µM in the test on SW-620 colon. For the same compound, the TGI with HS 578T breast turned out to be 5.16 µM; in the test on MALME-3M melanoma, 0.617 µM; in the test on NCI-H226 lung, 0.987 µM; in the test on NCI-H23 lung, 1.42 µM; in the test with NCI-H460 lung, 0.448 µM; in the test on OVCAR-3 ovarian, 0.889 µM. In addition, the TGI with OVCAR-5 ovarian is 4.94 µM; with SF-539 CNS it was 2.41 µM; in the test with SK-MEL-5 melanoma, 0.395 µM; in the test with SW-620 colon it was 1.51 µM.
For the compound `c1cc(CCN2CCCCC2)ccn1`, the TGI in the test on HS 578T breast, in the test on MALME-3M melanoma, with NCI-H226 lung, with NCI-H23 lung, in the test with NCI-H460 lung and in the test on OVCAR-3 ovarian was greater than 100 µM each time. For the same compound, the TGI with OVCAR-5 ovarian, in the test on SF-539 CNS, in the test on SK-MEL-5 melanoma and with SW-620 colon was greater than 100 µM throughout.
On to `Cc1ccc(NC(=O)c2cc3ccccc3c(N=Nc3ccccc3O)c2O)c(C)c1`, for which the TGI with HS 578T breast was 8.29 µM; with MALME-3M melanoma, 5.87 µM; with NCI-H226 lung, 13.1 µM; with NCI-H460 lung, 12.1 µM; in the test on OVCAR-3 ovarian, 3.98 µM; with OVCAR-5 ovarian, 19.5 µM. In addition, the TGI was 3.35 µM in the test with SK-MEL-5 melanoma and 11.8 µM in the test with SW-620 colon.
Take `N#Cc1c(N)nc(N2CCOCC2)c(C#N)c1-c1ccc(Cl)cc1`: the GI50 in the test with HS 578T breast was 40.6 µM; in the test with NCI-H226 lung it was 50.4 µM; with NCI-H23 lung it was 73.5 µM; in the test with NCI-H460 lung it was 33.2 µM; in the test on OVCAR-3 ovarian, 27.8 µM; in the test with OVCAR-5 ovarian, 80.4 µM. Besides, the GI50 was 49 µM in the test on SF-539 CNS, 27.4 µM with SK-MEL-5 melanoma and greater than 100 µM with SW-620 colon. The TGI in the test with HS 578T breast, with NCI-H226 lung, with NCI-H23 lung, with NCI-H460 lung, with OVCAR-3 ovarian and with OVCAR-5 ovarian was greater than 100 µM throughout. The TGI in the test on SF-539 CNS, in the test with SK-MEL-5 melanoma and in the test with SW-620 colon was greater than 100 µM in each case.
Regarding `CCN1CCN(CC(=O)Nc2nc3ccc(NCc4ccc(Cl)cc4)cc3s2)CC1`, the GI50 in the test with HS 578T breast is 2.59 µM; in the test with MALME-3M melanoma it was 1.67 µM; in the test on NCI-H23 lung it was 3.25 µM; in the test with NCI-H460 lung, 2.18 µM; with OVCAR-3 ovarian, 3.16 µM; in the test with SF-539 CNS it was 1.69 µM. For the same compound, the GI50 in the test on SK-MEL-5 melanoma is 1.67 µM; with SW-620 colon, 2.1 µM. In addition, the TGI with HS 578T breast was 9.09 µM; in the test with MALME-3M melanoma, 3.2 µM; in the test with NCI-H23 lung it was greater than 100 µM; in the test with NCI-H460 lung, 4.69 µM; in the test on OVCAR-3 ovarian, 16.8 µM; in the test with SF-539 CNS, 3.18 µM. Also, the figures for the TGI with SK-MEL-5 melanoma and in the test on SW-620 colon were 3.07 µM and 4.78 µM, respectively.
In the case of `CC(=O)NCCSC(=O)c1ccccc1`, the TGI with HS 578T breast was 5.52 µM; in the test with MALME-3M melanoma, 0.304 µM; in the test with NCI-H226 lung it was 0.413 µM; in the test on NCI-H23 lung, 0.191 µM; with NCI-H460 lung, 6.44 µM; in the test with OVCAR-3 ovarian it was 0.944 µM. The values for the TGI in the test with OVCAR-5 ovarian, in the test with SF-539 CNS and with SK-MEL-5 melanoma were 0.527 µM, 1.39 µM and 0.0801 µM, respectively.
With `O=C1CC(c2ccc3c(c2)OCO3)Nc2cc3c(cc21)OCO3` (configuration not stated), the GI50 in the test on HS 578T breast is 0.512 µM; with NCI-H226 lung it was 13.9 µM; with NCI-H23 lung, 0.479 µM; in the test on NCI-H460 lung, 0.353 µM; with OVCAR-3 ovarian, 0.344 µM; with OVCAR-5 ovarian it was 2.3 µM. The GI50 is 0.301 µM with SF-539 CNS, 0.364 µM with SK-MEL-5 melanoma and 0.357 µM in the test with SW-620 colon. Besides, the TGI is 93.6 µM with HS 578T breast; greater than 100 µM in the test with NCI-H226 lung; greater than 100 µM in the test on NCI-H23 lung; 13 µM with NCI-H460 lung; 1.45 µM with OVCAR-3 ovarian; greater than 100 µM in the test with OVCAR-5 ovarian. Besides, the TGI in the test on SF-539 CNS was 1.2 µM; in the test on SK-MEL-5 melanoma, 1.94 µM; in the test with SW-620 colon, greater than 100 µM.
